Source: patent US20070249620A1, “Urea Derivative” (priority 2004, published 2007)

Tests used:
mouse DGAT1 = target: T1, mouse DGAT1 (Mus musculus, UniProt Q9Z2A7); experiment: DGAT1 inhibitory effect test (microsome fraction, [14C]-oleoyl-CoA, triglyceride radioactivity by TLC); assay type: biochemical; conditions: 0.5 h; concentration of the test compound 0.1 μg/ml; mouse DGAT1 microsomes, 23° C., 30 minutes; read-out: Inhibitory ratio
T1 construct: made in house; host or cells: insect cells (High Five, Sf9, Sf21, etc.), baculovirus expression system (Invitrogen)
T1 sequence (Q9Z2A7 1-498): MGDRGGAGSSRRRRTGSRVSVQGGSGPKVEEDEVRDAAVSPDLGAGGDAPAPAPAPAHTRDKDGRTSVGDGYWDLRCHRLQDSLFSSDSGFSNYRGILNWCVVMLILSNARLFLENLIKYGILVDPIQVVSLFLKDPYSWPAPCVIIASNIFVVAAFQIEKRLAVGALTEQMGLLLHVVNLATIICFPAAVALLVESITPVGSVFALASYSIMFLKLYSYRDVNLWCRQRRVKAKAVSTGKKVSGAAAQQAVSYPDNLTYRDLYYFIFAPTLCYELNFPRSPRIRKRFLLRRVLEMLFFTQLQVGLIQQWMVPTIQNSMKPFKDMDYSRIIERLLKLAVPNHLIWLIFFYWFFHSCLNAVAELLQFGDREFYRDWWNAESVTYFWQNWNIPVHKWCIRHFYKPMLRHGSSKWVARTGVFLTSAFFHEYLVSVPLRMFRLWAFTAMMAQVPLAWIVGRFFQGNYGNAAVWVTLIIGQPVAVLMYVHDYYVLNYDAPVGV
Outline: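 Inhibition was scored from radiolabelled triglyceride separated by TLC, relative to vehicle and net of a 0-min background. The reaction ran for 30 min at room temperature (23 °C) in Tris-HCl pH 8.0 with MgCl2, BSA and Triton X-100. Substrates were 30 μM [14C]-oleoyl-CoA and 0.5 mM dioleoylglycerol, with mouse DGAT1 microsomes from baculovirus-infected insect cells as enzyme.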

## CCC(C)c1ccc(NC(=O)Nc2ccc(N3CCN(C(=O)Nc4c(C)cccc4Cl)CC3)cc2)cc1 (centres unmarked) [Example 161, 4-{4-[3-(4-sec-butyl-phenyl)-ureido]-phenyl}-piperazine-1-carboxylic acid (2-chloro-6-methyl-phenyl)-amide]
Mouse DGAT1
  inhibition at 0.1 µg/mL: ≥ 50%
other
  melting point: 259 to 261 °C

## CCCCOc1ccc(NC(=O)Nc2ccc(N3CCN(C(=O)Nc4c(C)cccc4Cl)CC3)cc2)cc1 [Example 162, 4-{4-[3-(4-butoxy-phenyl)-ureido]-phenyl}-piperazine-1-carboxylic acid (2-chloro-6-methyl-phenyl)-amide]
Mouse DGAT1
  inhibition at 0.1 µg/mL: ≥ 50%
other
  melting point: 218 to 219 °C

## Cc1cccc(Cl)c1NC(=O)N1CCN(c2ccc(NC(=O)Nc3cc(C(F)(F)F)ccc3F)cc2)CC1 [Example 163, 4-{4-[3-(2-fluoro-5-trifluoromethyl-phenyl)-ureido]-phenyl}-piperazine-1-carboxylic acid (2-chloro-6-methyl-phenyl)-amide]
Mouse DGAT1
  inhibition at 0.1 µg/mL: ≥ 50%
other
  melting point: 228 to 230 °C

## Cc1cccc(Cl)c1NC(=O)N1CCN(c2ccc(NC(=O)Nc3cc(C(F)(F)F)ccc3Cl)cc2)CC1 [Example 164, 4-{4-[3-(2-chloro-5-trifluoromethyl-phenyl)-ureido]-phenyl}-piperazine-1-carboxylic acid (2-chloro-6-methyl-phenyl)-amide]
Mouse DGAT1
  inhibition at 0.1 µg/mL: ≥ 50%
other
  melting point: 249 to 251 °C

## Cc1ccc(Cl)c(NC(=O)Nc2ccc(N3CCN(C(=O)Nc4c(C)cccc4Cl)CC3)cc2)c1 [Example 165, 4-{4-[3-(2-chloro-5-methyl-phenyl)-ureido]-phenyl}-piperazine-1-carboxylic acid (2-chloro-6-methyl-phenyl)-amide]
Mouse DGAT1
  inhibition at 0.1 µg/mL: ≥ 50%
other
  melting point: > 260 °C (dec.)

## COc1ccc(C)cc1NC(=O)Nc1ccc(N2CCN(C(=O)Nc3ccc(N)cc3C(F)(F)F)CC2)cc1 [Example 166, 4-{4-[3-(2-methoxy-5-methyl-phenyl)-ureido]-phenyl}-piperazine-1-carboxylic acid (4-amino-2-trifluoromethyl-phenyl)-amide]
Mouse DGAT1
  inhibition at 0.1 µg/mL: ≥ 50%
other
  melting point: 244 to 246 °C

## COc1ccc(C)cc1NC(=O)Nc1ccc(N2CCN(C(=O)Nc3c(C)cccc3N)CC2)cc1 [Example 167, 4-{4-[3-(2-methoxy-5-methyl-phenyl)-ureido]-phenyl}-piperazine-1-carboxylic acid (2-amino-6-methyl-phenyl)-amide]
Mouse DGAT1
  inhibition at 0.1 µg/mL: ≥ 50%
other
  melting point: 198 to 199 °C

## COc1ccc(C)cc1NC(=O)Nc1ccc(N2CCN(C(=O)Nc3ccc(N)cc3Cl)CC2)cc1 [Example 168, 4-{4-[3-(2-methoxy-5-methyl-phenyl)-ureido]-phenyl}-piperazine-1-carboxylic acid (4-amino-2-chloro-phenyl)-amide]
Mouse DGAT1
  inhibition at 0.1 µg/mL: ≥ 50%
other
  melting point: 226 to 228 °C

## COc1ccc(C)cc1NC(=O)Nc1ccc(N2CCN(C(=O)Nc3ccc(NC(C)=O)cc3Cl)CC2)cc1 [Example 169, 4-{4-[3-(2-methoxy-5-methyl-phenyl)-ureido]-phenyl}-piperazine-1-carboxylic acid (4-acetylamino-2-chloro-phenyl)-amide]
Mouse DGAT1
  inhibition at 0.1 µg/mL: ≥ 50%
other
  melting point: 155 to 157 °C

## COc1ccc(C)cc1NC(=O)Nc1ccc(N2CCN(C(=O)Nc3c(C)cccc3OC)CC2)cc1 [Example 170, 4-{4-[3-(2-methoxy-5-methyl-phenyl)-ureido]-phenyl}-piperazine-1-carboxylic acid (2-methoxy-6-methyl-phenyl)-amide]
Mouse DGAT1
  inhibition at 0.1 µg/mL: ≥ 50%
other
  melting point: 200 to 203 °C

## COc1ccc(C)cc1NC(=O)Nc1ccc(N2CCN(C(=O)Nc3ccc(Br)cc3C#N)CC2)cc1 [Example 171, 4-{4-[3-(2-methoxy-5-methyl-phenyl)-ureido]-phenyl}-piperazine-1-carboxylic acid (4-bromo-2-cyano-phenyl)-amide]
Mouse DGAT1
  inhibition at 0.1 µg/mL: ≥ 50%
other
  melting point: 149 to 151 °C

## COc1ccc(C)cc1NC(=O)Nc1ccc(N2CCN(C(=O)Nc3ccc(F)cc3C)CC2)cc1 [Example 172, 4-{4-[3-(2-methoxy-5-methyl-phenyl)-ureido]-phenyl}-piperazine-1-carboxylic acid (4-fluoro-2-methyl-phenyl)-amide]
Mouse DGAT1
  inhibition at 0.1 µg/mL: ≥ 50%
other
  melting point: > 270 °C (dec.)

## COc1ccc(C)cc1NC(=O)Nc1ccc(N2CCN(C(=O)Nc3ccc(NC(C)=O)cc3C(F)(F)F)CC2)cc1 [Example 173, 4-{4-[3-(2-methoxy-5-methyl-phenyl)-ureido]-phenyl}-piperazine-1-carboxylic acid (4-acetylamino-2-trifluoromethyl-phenyl)-amide]
Mouse DGAT1
  inhibition at 0.1 µg/mL: ≥ 50%
other
  melting point: 152 to 154 °C

## COc1ccc(C)cc1NC(=O)Nc1ccc(N2CCN(C(=O)Nc3c(C)cc(Cl)cc3C)CC2)cc1 [Example 174, 4-{4-[3-(2-methoxy-5-methyl-phenyl)-ureido]-phenyl}-piperazine-1-carboxylic acid (4-chloro-2,6-dimethyl-phenyl)-amide]
Mouse DGAT1
  inhibition at 0.1 µg/mL: ≥ 50%
other
  melting point: 238 to 240 °C

## COc1ccc(NC(=O)N2CCN(c3ccc(NC(=O)Nc4cc(C)ccc4OC)cc3)CC2)c(C(F)(F)F)c1 [Example 175, 4-{4-[3-(2-methoxy-5-methyl-phenyl)-ureido]-phenyl}-piperazine-1-carboxylic acid (4-methoxy-2-trifluoromethyl-phenyl)-amide]
Mouse DGAT1
  inhibition at 0.1 µg/mL: ≥ 50%
other
  melting point: 245 to 247 °C

## COc1ccc(C)cc1NC(=O)Nc1ccc(N2CCN(C(=O)Nc3c(C)cccc3Br)CC2)cc1 [Example 177, 4-{4-[3-(2-methoxy-5-methyl-phenyl)-ureido]-phenyl}-piperazine-1-carboxylic acid (2-bromo-6-methyl-phenyl)-amide]
Mouse DGAT1
  inhibition at 0.1 µg/mL: ≥ 50%
other
  melting point: 221 to 222 °C

## COc1ccc(C)cc1NC(=O)Nc1ccc(N2CCN(C(=O)Nc3ccc(C(C)C)cc3C(F)(F)F)CC2)cc1 [Example 178, 4-{4-[3-(2-methoxy-5-methyl-phenyl)-ureido]-phenyl}-piperazine-1-carboxylic acid (4-isopropyl-2-trifluoromethyl-phenyl)-amide]
Mouse DGAT1
  inhibition at 0.1 µg/mL: ≥ 50%
other
  melting point: 134 to 135 °C

## COc1ccc(C)cc1NC(=O)Nc1ccc(N2CCN(C(=O)Nc3c(C)cccc3C(=O)O)CC2)cc1 [Example 179, 2-[(4-{4-[3-(2-methoxy-5-methyl-phenyl)-ureido]-phenyl}-piperazine-1-carbonyl)-amino]-3-methyl-benzoic acid]
Mouse DGAT1
  inhibition at 0.1 µg/mL: ≥ 50%
other
  melting point: 159 to 160 °C

## COc1ccc(C)cc1NC(=O)Nc1ccc(N2CCN(C(=O)Nc3ccc(C(=O)O)cc3C)CC2)cc1 [Example 180, 4-[(4-{4-[3-(2-methoxy-5-methyl-phenyl)-ureido]-phenyl}-piperazine-1-carbonyl)-amino]-3-methyl-benzoic acid]
Mouse DGAT1
  inhibition at 0.1 µg/mL: ≥ 50%
other
  melting point: 178 to 180 °C

## COc1ccc(C)cc1NC(=O)Nc1ccc(N2CCN(C(=O)Nc3ccc(C(=O)O)cc3Cl)CC2)cc1 [Example 181, 3-chloro-4-[(4-{4-[3-(2-methoxy-5-methyl-phenyl)-ureido]-phenyl}-piperazine-1-carbonyl)-amino]-benzoic acid]
Mouse DGAT1
  inhibition at 0.1 µg/mL: ≥ 50%
other
  melting point: 209 to 221 °C

## CCOc1ccccc1NC(=O)Nc1ccc(N2CCN(C(=O)Nc3c(C)cccc3OC)CC2)cc1 [Example 183, 4-{4-[3-(2-ethoxy-phenyl)-ureido]-phenyl}-piperazine-1-carboxylic acid (2-methoxy-6-methyl-phenyl)-amide]
Mouse DGAT1
  inhibition at 0.1 µg/mL: ≥ 50%
other
  melting point: 169 to 171 °C

## CCOc1ccc(C)cc1NC(=O)Nc1ccc(N2CCN(C(=O)Nc3c(C)cccc3OC)CC2)cc1 [Example 184, 4-{4-[3-(2-ethoxy-5-methyl-phenyl)-ureido]-phenyl}-piperazine-1-carboxylic acid (2-methoxy-6-methyl-phenyl)-amide]
Mouse DGAT1
  inhibition at 0.1 µg/mL: ≥ 50%
other
  melting point: 142 to 144 °C

## COc1ccc(C)cc1NC(=O)Nc1ccc(N2CCN(C(=O)Nc3c(C)cccc3CO)CC2)cc1 [Example 185, 4-{4-[3-(2-methoxy-5-methyl-phenyl)-ureido]-phenyl}-piperazine-1-carboxylic acid (2-hydroxymethyl-6-methyl-phenyl)-amide]
Mouse DGAT1
  inhibition at 0.1 µg/mL: ≥ 50%
other
  melting point: 192 to 194 °C

## COc1ccc(C)cc1NC(=O)Nc1ccc(N2CCN(C(=O)Nc3c(C)cccc3OC)CC2)nc1 [Example 186, 4-{5-[3-(2-methoxy-5-methyl-phenyl)-ureido]-pyridin-2-yl}-piperazine-1-carboxylic acid (2-methoxy-6-methyl-phenyl)-amide]
Mouse DGAT1
  inhibition at 0.1 µg/mL: ≥ 50%
other
  melting point: 198 to 200 °C

## CCOc1ccccc1NC(=O)Nc1ccc(N2CCN(C(=O)Nc3c(C)cccc3OC)CC2)nc1 [Example 187, 4-{5-[3-(2-ethoxy-phenyl)-ureido]-pyridin-2-yl}-piperazine-1-carboxylic acid (2-methoxy-6-methyl-phenyl)-amide]
Mouse DGAT1
  inhibition at 0.1 µg/mL: ≥ 50%
other
  melting point: 129 to 130 °C
